We go through 16 compounds from article PMC3815326 (Microbial biotechnology, 2012).

As a reminder, the Kd is the free concentration of one partner at which half of the binding sites on the other are occupied at equilibrium, for simple one-to-one binding. As usually defined, the Km is the concentration of substrate that gives half-maximal velocity.

For assay [1], the target named is T1, TmoS (Ectopseudomonas mendocina, UniProt Q8KIY1). In words: Isothermal titration calorimetry of purified TmoS with effector molecules. Conditions: for ΔH / TΔS / affinity / binding to TmoS, in words: TmoS. Type of assay: binding, Pseudomonas mendocina KR1.
The subject of assay [2] is TmoS. The assay is described as above. Type of assay: binding, Pseudomonas mendocina KR1. The conditions noted are these: TodS values from Busch et al., 2007.
For assay [3], the target named is T1, TmoS. Type of assay: biochemical, Pseudomonas mendocina KR1.
Assay [4] concerns TodS. The conditions noted are these: agonist / antagonist classification, ref Busch et al., 2007, cited from earlier work.
Assay [5] has as its system T4MO. Conditions: T4MO substrate; ref Mitchell et al., 2002; cited from earlier work.
The target of assay [6] is CitA. The conditions noted are these: read-out: KD for CitA; determined by ITC; ref Kaspar et al., 1999; cited from earlier work.
[7] abbreviates: ITC, typically 10 µM TmoS titrated with 500 µM effector, pH 7.5.
The mark [8] stands for this setting: 100 µM effector (saturating), 30 min, 10 µM TmoS, 4°C.
[9] abbreviates: 100 µM effector, time course (Fig. 4B and C).

“Also recorded” adds a separate entry of the source. Read-outs that look alike come from different tables or passages of the source.

T1 sequence (Q8KIY1 whole entry): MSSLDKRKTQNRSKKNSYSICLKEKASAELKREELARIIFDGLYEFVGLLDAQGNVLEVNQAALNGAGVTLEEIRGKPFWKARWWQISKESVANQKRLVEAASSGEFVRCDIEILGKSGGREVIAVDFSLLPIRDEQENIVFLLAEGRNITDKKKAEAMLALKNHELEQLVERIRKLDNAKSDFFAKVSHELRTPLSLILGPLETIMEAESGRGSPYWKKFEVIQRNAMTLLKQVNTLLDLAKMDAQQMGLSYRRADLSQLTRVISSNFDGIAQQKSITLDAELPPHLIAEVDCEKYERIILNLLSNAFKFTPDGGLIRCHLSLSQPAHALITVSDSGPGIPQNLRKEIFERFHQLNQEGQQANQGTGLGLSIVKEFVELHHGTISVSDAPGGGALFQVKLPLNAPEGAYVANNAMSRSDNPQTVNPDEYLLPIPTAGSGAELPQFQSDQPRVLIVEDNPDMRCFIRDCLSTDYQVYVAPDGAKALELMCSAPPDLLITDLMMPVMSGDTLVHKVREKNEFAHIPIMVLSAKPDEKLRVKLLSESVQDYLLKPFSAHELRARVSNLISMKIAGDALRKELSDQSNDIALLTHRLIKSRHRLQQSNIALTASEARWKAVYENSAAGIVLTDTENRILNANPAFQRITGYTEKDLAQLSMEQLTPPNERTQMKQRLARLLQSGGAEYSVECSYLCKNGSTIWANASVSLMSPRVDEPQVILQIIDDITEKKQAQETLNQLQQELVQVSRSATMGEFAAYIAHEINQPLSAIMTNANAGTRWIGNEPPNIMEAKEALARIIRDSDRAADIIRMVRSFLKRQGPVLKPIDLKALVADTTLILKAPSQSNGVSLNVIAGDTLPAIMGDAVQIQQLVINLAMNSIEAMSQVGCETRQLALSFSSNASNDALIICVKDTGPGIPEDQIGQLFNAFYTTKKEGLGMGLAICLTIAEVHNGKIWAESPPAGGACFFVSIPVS

`Clc1ccccc1` [Chlorobenzene] registered a Kd in assay [1] of 1250 ± 70 nM. For the same compound, the ΔH in assay [1] (ITC) is -6.9 ± 0.3 kcal/mol. Also, the “affinity for TmoS relative to TodS” value in assay [2] was “comparable”. Further, the “TmoS phosphorylation state in presence of effector versus control” value in assay [3] is on record as “increased phosphorylation”. In assay [4], the “Effect on TodS” value was “Agonist”.
On to `O=[N+]([O-])c1ccccc1` [Nitrobenzene], for which the affinity in assay [1], expressed as Kd, was 230 ± 30 nM. In assay [1] (ITC), the TΔS amounted to 4.5 ± 0.1 kcal/mol; the “affinity / binding to TmoS, in words” value was “nanomolar range”; the ΔH is -4.1 ± 0.1 kcal/mol. The “affinity for TmoS relative to TodS” value in assay [2] turned out to be 29 times. The “Effect on TodS” value in assay [4] is “Agonist”.
The compound `Cc1cccc(C)c1` [m‐xylene] yielded a Kd in assay [1] of 710 ± 90 nM. The same compound registered a TΔS in assay [1] (ITC) of 1.1 ± 0.6 kcal/mol. The “Effect on TodS” value in assay [4] is listed as “Agonist”.
In the case of `Cc1ccccc1Cl` [o‐Chlorotoluene], in assay [1] (ITC), the TΔS turned out to be 2.4 ± 0.9 kcal/mol and the ΔH is -5.1 ± 0.9 kcal/mol. This compound also came in with an equilibrium dissociation constant (Kd) in assay [1] (setting [7]) of 2140 ± 400 nM. Moreover, in assay [3] (setting [8]), the “TmoS phosphorylation state in presence of effector versus control” value is on record as “very similar to the control; also recorded: failed to increase; also recorded: did not trigger an increase”. The “Effect on TodS” value in assay [4] is “Antagonist”. The “Effect on TodS” value in assay [4] (listed as o‐chlorotoluene) was “antagonists”.
For `CCc1ccccc1` [Ethylbenzene], in assay [1] (ITC), the TΔS came out at 4.1 ± 0.1 kcal/mol and the ΔH is -3.5 ± 0.1 kcal/mol. In addition, the Kd in assay [1] (KD, ITC, typically 10 µM TmoS titrated with 500 µM effector, pH 7.5) was found to be 1560 ± 100 nM. Moreover, the “affinity for TmoS relative to TodS” value in assay [2] was “tighter”. The “TmoS phosphorylation state in presence of effector versus control” value in assay [3] (setting [8]) is “increased phosphorylation”. Further, the “Effect on TodS” value in assay [4] is “Agonist”.
`C=Cc1ccccc1` [Styrene] gave a Kd in assay [1] of 810 ± 100 nM. For the same compound, in assay [1] (ITC), the TΔS was 3.3 ± 0.3 kcal/mol; the “affinity / binding to TmoS, in words” value is listed as “nanomolar range”; the ΔH is -4.8 ± 0.3 kcal/mol. For the same compound, the “affinity for TmoS relative to TodS” value in assay [2] was “comparable”. Further, in assay [4], the “Effect on TodS” value was “Agonist”.
The compound `Cc1ccc(C)c(C)c1` [1,2,4 Trimethylbenzene] gave a Kd in assay [1] of 3460 ± 500 nM. In assay [1] (ITC), the TΔS is 5.6 ± 0.2 kcal/mol; the “affinity / binding to TmoS, in words” value was “tight binding”; the ΔH was -1.5 ± 0.2 kcal/mol. The “TmoS phosphorylation state in presence of effector versus control” value in assay [3] is on record as “very similar to the control; also recorded: failed to increase”. In addition, the “Effect on TodS” value in assay [4] was “Antagonist”.
The compound `Cc1ccc(C)cc1` [p‐xylene] showed a Kd in assay [1] of 460 ± 50 nM. In addition, in assay [1] (ITC), the TΔS turned out to be 4.9 ± 0.29 kcal/mol and the ΔH is -3.4 ± 0.3 kcal/mol. In assay [4], the “Effect on TodS” value is listed as “Agonist”.
On to chlorotoluene, for which, in assay [3] (setting [9]), the “stimulation of TmoS autokinase activity in kinetics experiment” value (from here on “stimulation of TmoS autokinase activity”) was “significantly inferior”.
Take `C1CCCCC1` [cyclohexane]: in assay [1] (ITC), the TΔS entry is listed as “No binding”; the “affinity / binding to TmoS, in words” value is “failed to bind”; the ΔH entry was “No binding”. In assay [1] (setting [7]), the KA entry is recorded as “No binding” and the KD result is given as “No binding”. Further, in assay [4], the “Effect on TodS” value is given as “No binding”.
Take `Cc1ccccc1` [Toluene]: in assay [1] (ITC), the TΔS worked out at 2.4 ± 0.1 kcal/mol and the ΔH is -6.5 ± 0.1 kcal/mol. Moreover, the Km in assay [5] is 4 µM. The “TmoS phosphorylation state in presence of effector versus control” value in assay [3] (setting [8]) was “most pronounced increase”. Besides, the “TmoS phosphorylation state in presence of effector versus control” value in assay [3] (100 µM effector (saturating), 30 min, 10 µM TmoS, 4°C, listed as toluene) is “increased phosphorylation”. Further, the “time of maximal TmoS phosphorylation” value in assay [3] (100 µM effector, kinetics of autophosphorylation) was 40 min. The “stimulation of TmoS autokinase activity” value in assay [3] (setting [9]) is given as “most pronounced increase”.
With `Cc1ccc(Cl)cc1` [p‐Chlorotoluene], in assay [1] (ITC), the TΔS was 5.3 ± 0.1 kcal/mol; the “affinity / binding to TmoS, in words” value is on record as “nanomolar range”; the ΔH is -2.7 ± 0.1 kcal/mol. Besides, the “Effect on TodS” value in assay [4] was “Agonist”.
In the case of `O=C(O)CC(O)(CC(=O)O)C(=O)O` [citrate], the Kd in assay [6] was 5500 nM.
In the case of `Cc1cccc(Cl)c1` [m‐Chlorotoluene], the Kd in assay [1] turned out to be 2070 ± 600 nM. Besides, in assay [1] (ITC), the TΔS amounted to 1.5 ± 0.8 kcal/mol and the ΔH is -5.9 ± 0.9 kcal/mol. Further, in assay [4], the “Effect on TodS” value is given as “Agonist”.
The compound `c1ccccc1` [Benzene] showed a Kd in assay [1] of 170 nM. Also, in assay [1] (ITC), the TΔS is 3.6 ± 0.1 kcal/mol; the “affinity / binding to TmoS, in words” value was “nanomolar range”; the ΔH is -5.3 ± 0.1 kcal/mol. Besides, the “affinity for TmoS relative to TodS” value in assay [2] is reported as “around 4.5 times”. Further, in assay [3], the “TmoS phosphorylation state in presence of effector versus control” value is reported as “increased phosphorylation” and the “stimulation of TmoS autokinase activity” value is “significantly inferior”. Also, the “Effect on TodS” value in assay [4] was “Agonist”.
In assay [1], `Cc1ccccc1C` [o‐xylene] came in with a dissociation constant (Kd) of 290 ± 10 nM. In assay [1] (ITC), the ΔH is -8.9 ± 0.1 kcal/mol. The “TmoS phosphorylation state in presence of effector versus control” value in assay [3] (setting [8]) is recorded as “very similar to the control; also recorded: failed to increase; also recorded: did not trigger an increase”. Also, the results for the “Effect on TodS” value in assay [4] and in assay [4] (listed as o‐ xylene) were “Antagonist” and “antagonists”, respectively.
